Data taken from patent US20110183978A1, “Phenylpyri(mi)dinylazoles” (Bayer CropScience AG, priority 2009, published 2011).
Like-named read-outs stand apart in the source and are kept apart here.

Tests used:
[1] = test system: Sphaerotheca fuliginea; assay: Example L: in vivo test on Sphaerotheca fuliginea (powdery mildew on cucumber/protective); settings: Podosphaera fuliginea, 168 h, cucumber, protective, assessment 7 days after inoculation, read-out: % Wirkungsgrad
Outline: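 Young cucumber plants sprayed at stated dosage with compound in DMF/alkylaryl polyglycol ether emulsifier diluted in water; inoculated with S. fuliginea spores one day later. Kept in greenhouse at 70% relative humidity, 23° C; protective activity assessed 7 days after inoculation.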

[2] = test system: Venturia inaequalis; assay: Example O: in vivo test on Venturia inaequalis (apple scab/protective); settings: 240 h, protective, assessment 10 days after inoculation, read-out: % Wirkungsgrad
Experimental: (§1) Emulsifier: 1 part by weight alkylaryl polyglycol ethers For the preparation of a suitable active substance preparation, 1 part by weight of active substance is mixed with the stated quantities of solvent and emulsifier and the concentrate is diluted to the desired concentration with water. For the testing for protective activity, young plants are sprayed with the active substance preparation at the stated application dosage. […] 10 days after the inoculation, the assessment takes place.

[3] = test system: Fusarium graminearum; assay: microbe, parasite or virus in culture; assay type: cell-based
[4] = test system: Alternaria solani; assay: Example M: in vivo test on Alternaria solani (leaf blotch disease/tomato/protective); settings: 168 h, tomato, protective, 500 ppm active substance, assessed 7 days after inoculation, read-out: % Wirkungsgrad (activity level)
Outline: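 Protective test: young tomato plants sprayed with active substance (in DMF with alkylaryl polyglycol ether emulsifier, diluted in water) at the stated dosage, then inoculated with Alternaria solani. Disease assessed 7 days after inoculation.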

[5] = physchem
[6] = test system: Botrytis cinerea; assay: Example P: in vivo test on Botrytis cinerea (gray mould on bean/protective); settings: 48 h, bean, protective, 250 ppm active substance, assessed 2 days after inoculation, read-out: % Wirkungsgrad (activity level)
Experimental: as §1, with “dosage. After drying of the spray coating, 2 small pieces of agar with Botrytis cinerea growing on them are laid on every leaf.” for “dosage.”, “2” for “10”, “size of the infection blotches on the leaves is assessed.” for “assessment takes place.”

[7] = 72 h, read-out: % Inhibition des Pilzwachstums bei 50 μM
[8] = 168 h, read-out: % Inhibition der DON/AcDON produktion bei 50 μM

| SMILES | pest or weed control at 500 ppm [1] [%] | pest or weed control at 100 ppm [2] [%] | inhibition at 50 µM [3, 7] [%] | inhibition at 50 µM [3, 8] [%] | pest or weed control at 500 ppm [4] [%] | chromatographic logP ([5]; LogPA (logP of the stated pure compound or, in a mixture, of the main isomer, 1-substituted 3-aryl-1H-pyrazole)) | pest or weed control at 250 ppm [6] [%] | chromatographic logP ([5]; LogPA) |
| --- | --- | --- | --- | --- | --- | --- | --- | --- |
| CCC(C)n1cc(-c2ccnc(NC(=O)COC)c2)c(-c2ccc(F)cc2)n1 (stereo not drawn) [Compound 162] | 99 | 96 | 99 | 99 | 94 | 2.95 | 100 | – |
| CC(C)n1cc(-c2ccnc(NC(=O)c3ccccc3)c2)c(-c2ccc(F)cc2)n1 [Compound 205] | 100 | 91 | – | – | 95 | – | 100 | 3.2 |
| CC(C)n1cc(-c2ccnc(NC(=O)c3cccs3)c2)c(-c2ccc(F)cc2)n1 [Compound 206] | 94 | 83 | 75 | 99 | 90 | – | 100 | 3.14 |
| COCCOCC(=O)Nc1cc(-c2cn(C(C)C)nc2-c2ccc(F)cc2)ccn1 [Compound 208] | 100 | 78 | 101 | 100 | 80 | – | 100 | 2.62 |
| CC(C)n1cc(-c2ccnc(NC(=O)C(C)(C)O)c2)c(-c2ccc(F)cc2)n1 [Compound 209] | 100 | 89 | – | – | 95 | – | 100 | 2.42 |
| CC(C)n1cc(-c2ccnc(NC(=O)C(O)CO)c2)c(-c2ccc(F)cc2)n1 (stereo not drawn) [Compound 210] | 100 | 78 | 85 | 100 | 80 | – | 98 | 1.76 |
| CCNC(=O)Nc1cc(-c2cn(C(C)C)nc2-c2ccc(F)cc2)ccn1 [Compound 211] | 93 | 92 | 16 | 99 | 70 | – | 100 | 2.02 |
| CC(=O)Nc1cc(-c2cn(CC(F)F)nc2-c2ccc(F)cc2)ccn1 [Compound 242] | 97 | 89 | – | – | 88 | – | 99 | 1.74 |
| CC(C)(O)C(=O)Nc1cc(-c2cn(CC(F)F)nc2-c2ccc(F)cc2)ccn1 [Compound 243] | 95 | 98 | – | – | 100 | – | 75 | 2.18 |
| CCC(=O)Nc1cc(-c2cn(CC3CC3(Cl)Cl)nc2-c2ccc(F)cc2)ccn1 (stereo not drawn) [Compound 249] | 92 | 96 | – | – | 94 | – | 100 | 2.8 |
| CCOC(=O)Nc1cc(-c2cn(C(C)CC)nc2-c2ccc(F)cc2)ccn1 (stereo not drawn) [Compound 268] | 100 | 98 | 32 | 90 | 80 | – | 100 | 3.08 |
| CC(C)On1cc(-c2ccnc(NC(=O)C3CC3)c2)c(-c2ccc(F)cc2)n1 [Compound 271] | 79 | 81 | 71 | 99 | 89 | – | 93 | 2.73 |
| CC(C)On1cc(-c2ccnc(NC(=O)C(C)C)c2)c(-c2ccc(F)cc2)n1 [Compound 272] | 94 | 89 | 33 | 99 | 94 | – | 100 | 3.01 |
